Counter-ions that a name gives are not always drawn.
Target: T1, PPAR-α (Homo sapiens, UniProt Q07869)
T1 construct: expressed in transfected cells; host or cells: CV-1 (African green monkey kidney)
T1 sequence (Q07869 167-468): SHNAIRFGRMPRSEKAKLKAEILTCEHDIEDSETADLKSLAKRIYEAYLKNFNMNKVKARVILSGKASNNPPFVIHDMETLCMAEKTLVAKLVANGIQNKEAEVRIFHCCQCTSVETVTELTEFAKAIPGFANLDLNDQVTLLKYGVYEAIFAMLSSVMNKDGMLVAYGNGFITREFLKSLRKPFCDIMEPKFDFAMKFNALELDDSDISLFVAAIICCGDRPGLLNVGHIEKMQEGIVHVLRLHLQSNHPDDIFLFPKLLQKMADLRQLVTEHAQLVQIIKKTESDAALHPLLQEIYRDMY
Assay: Measurement of PPAR-α activity (GAL4 luciferase reporter assay in CV-1 cells)
Assay type: cell-based
Conditions: 100(A/B): A = maximum PPAR-α activity of test compound at 3, 10, 30 and 100 μM, B = activity of the compound of WO/2011/058154 at 100 μM, 18 to 20 hours; for Emax: read-out: Relative fold induction (%) of PPAR α
Protocol: The PPAR-α activity was measured according to the published article (THE JOURNAL OF BIOLOGICAL CHEMISTRY Vol. 270, No 0.22: 12953-12956, 1995).
Plasmids used for the PPAR-α activity measurement were constructed as follows. A luciferase expression plasmid (UAS×5-TK-Luc) used was obtained by introducing a sequence in which five yeast GAL4-binding sequences are linked in tandem into a portion upstream of a thymidine kinase promoter of pTAL-Luc (Takara Bio Inc., 6252-1). A PPAR-α receptor expression plasmid (hGR-GAL4-hPPARα) used was obtained by introducing a human GR N-terminal region (1-76aa), a yeast GAL4 DNA-binding region (1-147aa), and a PPARα ligand-binding region (167-468aa) between Not I and Sal I sites of pExchange-1 Core Vector (Invitrogen, 211176).
A reporter assay was conducted by the following method using African green monkey kidney-derived CV-1 cells. The CV-1 cells were seeded in a 96-well plate (Thermo Fisher Scientific K.K., 4938) at 2×10^4 cells/well by using a 10% FBS-containing DMEM (NACALAI TESQUE, INC., 0845874) medium. After culturing under conditions of 37° C. and 5% CO2 for 2 hours, the cells were transfected with the plasmids. The transfection was conducted by using Lipofectamine LTX (Invitrogen, 15338-100) according to the attached manual. The plasmid solution was prepared by adding a mixture solution of the luciferase expression plasmid and the PPAR-α receptor expression plasmid to OPTI-MEM I (Invitrogen, 11058-021). After the transfection, the test compound was added, and the cells were cultured at 37° C. in the presence of 5% CO2 for 18 to 20 hours. After the culturing, the luciferase activity was measured with Luminescensor JNR (ATTO) by using Bright-Glo (Promega, E2620).
The fold induction of PPAR-α by each test compound was calculated by the following method. A relative fold induction (%) of PPAR-α by the test compound was defined as 100 (A/B), where A represents the maximum value of the PPAR-α activities of the test compound at 3 μM, 10 μM, 30 μM, and 100 μM, and B represents the PPAR-α activity of the compound of WO/2011/058154 at 100 μM.

| SMILES | Relative fold induction (%) of PPAR α [%] | Emax [%] |
| --- | --- | --- |
| NC(=O)C1CC[C@@H](C(=O)O)N1C(=O)c1cccc(COc2ccc(-c3cc(F)c(F)c4ccoc34)cc2)c1 (single isomer, unassigned) [Example 4, (2S,5R) or (2S,5S)-5-Carbamoyl-1-[3-[[4-(4,5-difluorobenzofuran-7-yl)phenoxy]methyl]benzoyl]pyrrolidine-2-carboxylic Acid] | 10 | – |
| NC(=O)CN(CC(=O)O)C(=O)c1cccc(COc2ccc(-c3cc(F)c(F)c4ccoc34)cc2)c1 [Example 1, 2-[(2-Amino-2-oxo-ethyl)-[3-[[4-(4,5-difluorobenzofuran-7-yl)phenoxy]methyl]benzoyl]amino]acetic Acid] | – | 12 |
| O=C(O)[C@@H]1[C@@H](O)CCN1C(=O)c1cccc(COc2ccc(-c3cc(F)c(F)c4ccoc34)cc2)c1 [Example 2, (2S,3S)-1-[3-[[4-(4,5-Difluorobenzofuran-7-yl)phenoxy]methyl]benzoyl]-3-hydroxy-pyrrolidine-2-carboxylic Acid] | – | 5 |
| O=C(O)[C@@H]1[C@H](O)CCN1C(=O)c1cccc(COc2ccc(-c3cc(F)c(F)c4ccoc34)cc2)c1 [Example 3, (2S,3R)-1-[3-[[4-(4,5-Difluorobenzofuran-7-yl)phenoxy]methyl]benzoyl]-3-hydroxy-pyrrolidine-2-carboxylic Acid] | – | 11 |
| CSc1cc(F)c(F)cc1-c1ccc(OCc2cccc(C(=O)N3CC[C@H](O)[C@H]3C(=O)O)c2)cc1 [Example 5, (2S,3S)-1-[3-[[4-(4,5-Difluoro-2-methylsulfanyl-phenyl)phenoxy]methyl]benzoyl]-3-hydroxy-pyrrolidine-2-carboxylic Acid] | – | 10 |
| COCCN(CC(=O)O)C(=O)c1cccc(COc2ccc(-c3cc(F)c(F)cc3SC)cc2)c1 [Example 6, 2-[[3-[[4-(4,5-Difluoro-2-methylsulfanyl-phenyl)phenoxy]methyl]benzoyl]-(2-methoxyethyl)amino]acetic Acid] | – | 86 |
| CSc1cc(F)c(F)cc1-c1ccc(OCc2cccc(C(=O)N(CCC#N)CC(=O)O)c2)cc1 [Example 7, 2-[2-Cyanoethyl-[3-[[4-(4,5-difluoro-2-methylsulfanyl-phenyl)phenoxy]methyl]benzoyl]amino]acetic Acid] | – | 16 |
| CS(=O)(=O)CCN(CC(=O)O)C(=O)c1cccc(COc2ccc(-c3cc(F)c(F)c4ccoc34)cc2)c1 [Example 8, 2-[[3-[[4-(4,5-Difluorobenzofuran-7-yl)phenoxy]methyl]benzoyl]-(2-methylsulfonylethyl)amino]acetic Acid] | – | 11 |
| O=C(O)CN(CC1CCOCC1)C(=O)c1cccc(COc2ccc(-c3cc(F)c(F)c4ccoc34)cc2)c1 [Example 9, 2-[[3-[[4-(4,5-Difluorobenzofuran-7-yl)phenoxy]methyl]benzoyl]-(tetrahydropyran-4-ylmethyl)amino]acetic Acid] | – | 24 |
| CSc1cc(F)c(F)cc1-c1ccc(OCc2cccc(C(=O)N(CC(N)=O)CC(=O)O)c2)cc1 [Example 10, 2-[(2-Amino-2-oxo-ethyl)-[3-[[4-(4,5-difluoro-2-methylsulfanyl-phenyl)phenoxy]methyl]benzoyl]amino]acetic Acid] | – | 6.7 |
| CN(C)C(=O)CN(CC(=O)O)C(=O)c1cccc(COc2ccc(-c3cc(F)c(F)c4ccoc34)cc2)c1 [Example 11, 2-[[3-[[4-(4,5-Difluorobenzofuran-7-yl)phenoxy]methyl]benzoyl]-[2-(dimethylamino)-2-oxo-ethyl]amino]acetic Acid] | – | 7.4 |
| O=C(O)CN(CC1CCNCC1)C(=O)c1cccc(COc2ccc(-c3cc(F)c(F)c4ccoc34)cc2)c1 [Example 12, 2-[[3-[[4-(4,5-Difluorobenzofuran-7-yl)phenoxy]methyl]benzoyl]-(4-piperidylmethyl)amino]acetic Acid Trifluoroacetate] | – | 4.7 |
| CN(C)CCN(CC(=O)O)C(=O)c1cccc(COc2ccc(-c3cc(F)c(F)c4ccoc34)cc2)c1 [Example 13, 2-[[3-[[4-(4,5-Difluorobenzofuran-7-yl)phenoxy]methyl]benzoyl]-(2-dimethylaminoethyl)amino]acetic Acid Trifluoroacetate] | – | 5.3 |

Further lines, results first:

| Relative fold induction (%) of PPAR α [%] | Emax [%] | SMILES |
| --- | --- | --- |
| – | 6.7 | CSc1cc(F)c(F)cc1-c1ccc(OCc2cccc(C(=O)N3C(C(N)=O)CC[C@H]3C(=O)O)c2)cc1 (single isomer, unassigned) [Example 57, (2S,5R) or (2S,5S)-5-Carbamoyl-1-[3-[[4-(4,5-difluoro-2-methylsulfanyl-phenyl)phenoxy]methyl]benzoyl]pyrrolidine-2-carboxylic Acid] |
| 7.8 | – | CSc1cc(F)c(F)cc1-c1ccc(OCc2cccc(C(=O)N3C(C(N)=O)CC[C@H]3C(=O)O)c2)cc1 (single isomer, unassigned) [Example 58, (2S,5S) or (2S,5R)-5-Carbamoyl-1-[3-[[4-(4,5-difluoro-2-methylsulfanyl-phenyl)phenoxy]methyl]benzoyl]pyrrolidine-2-carboxylic Acid] |
| 42 | – | NC(=O)C1CC[C@@H](C(=O)O)N1C(=O)c1cccc(COc2ccc(-c3cc(F)c(F)c4ccoc34)cc2)c1 (single isomer, unassigned) [Example 76, (2S,5S) or (2S,5R)-5-Carbamoyl-1-[3-[[4-(4,5-difluorobenzofuran-7-yl)phenoxy]methyl]benzoyl]pyrrolidine-2-carboxylic Acid] |
| – | 13 | COC1CCN(C(=O)c2cccc(COc3ccc(-c4cc(F)c(F)cc4SC)cc3)c2)C1C(=O)O (stereo in doubt) [Example 33, (2S,3S)-1-[3-[[4-(4,5-Difluoro-2-methylsulfanyl-phenyl)phenoxy]methyl]benzoyl]-3-methoxy-pyrrolidine-2-carboxylic Acid] |
| – | 7.5 | Cc1coc2c(-c3ccc(OCc4cccc(C(=O)N(CCS(C)(=O)=O)CC(=O)O)c4)cc3)cc(F)c(F)c12 [Example 14, 2-[[3-[[4-(4,5-Difluoro-3-methyl-benzofuran-7-yl)phenoxy]methyl]benzoyl]-(2-methylsulfonylethyl)amino]acetic Acid] |
| – | 12 | CNC(=O)CN(CC(=O)O)C(=O)c1cccc(COc2ccc(-c3cc(F)c(F)c4ccoc34)cc2)c1 [Example 15, 2-[[3-[[4-(4,5-Difluorobenzofuran-7-yl)phenoxy]methyl]benzoyl]-[2-(methylamino)-2-oxo-ethyl]amino]acetic Acid] |
| – | 12 | CS(=O)(=O)NCCN(CC(=O)O)C(=O)c1cccc(COc2ccc(-c3cc(F)c(F)c4ccoc34)cc2)c1 [Example 16, 2-[[3-[[4-(4,5-Difluorobenzofuran-7-yl)phenoxy]methyl]benzoyl]-[2-(methanesulfonamido)ethyl]amino]acetic Acid] |
| – | 13 | CSc1cc(F)c(F)cc1-c1ccc(OCc2cccc(C(=O)N(CCNS(C)(=O)=O)CC(=O)O)c2)cc1 [Example 17, 2-[[3-[[4-(4,5-Difluoro-2-methylsulfanyl-phenyl)phenoxy]methyl]benzoyl]-[2-(methanesulfonamido)ethyl]amino]acetic Acid] |
| – | 23 | CC(C)(O)CCN(CC(=O)O)C(=O)c1cccc(COc2ccc(-c3cc(F)c(F)c4ccoc34)cc2)c1 [Example 18, 2-[[3-[[4-(4,5-Difluorobenzofuran-7-yl)phenoxy]methyl]benzoyl]-(3-hydroxy-3-methyl-butyl)amino]acetic Acid] |
